Laboratory results taken from the kinase profiling compilation of Christmann-Franck et al. (2016).
Where “and” joins values, the source holds several entries; their conditions need not be identical. Equal entries are not always repeated.

Columns and labels:
Experiment in all cases: radiometric filter-binding kinase assay
LCK (mouse) = settings: compound 100.0 µM; ATP 50 µM; accession and sequence are those of the human protein
MAPK8 (human) = MAPK8 (human) (UniProt P45983); settings: compound 100.0 µM; ATP 20 µM
RPS6KA3 KD1 KD2 (human) = RPS6KA3 KD1 KD2 (human) (UniProt P51812); settings: compound 100.0 µM; ATP 50 µM
PRKACA (human) = PRKACA (human) (UniProt P17612); settings: compound 100.0 µM; ATP 20 µM
HIPK3 (human) = HIPK3 (human) (UniProt Q9H422); settings: compound 100.0 µM; ATP 20 µM
RPS6KA5 KD1 KD2 (human) = RPS6KA5 KD1 KD2 (human) (UniProt O75582); settings: compound 100.0 µM; ATP 20 µM
DYRK1A (human) = DYRK1A (human) (UniProt Q13627); settings: compound 100.0 µM; ATP 50 µM
EPHB2 (human) = EPHB2 (human) (UniProt P29323); settings: compound 100.0 µM; ATP 20 µM
MARK3 (human) = MARK3 (human) (UniProt P27448); settings: compound 100.0 µM; ATP 5 µM
MYLK (human) = MYLK (human) (UniProt Q15746); settings: compound 100.0 µM; ATP 50 µM
YES1 (human) = YES1 (human) (UniProt P07947); settings: compound 100.0 µM; ATP 20 µM
RPS6KA1 KD1 KD2 (human) = RPS6KA1 KD1 KD2 (human) (UniProt Q15418); settings: compound 100.0 µM; ATP 50 µM
ERBB4 (human) = ERBB4 (human) (UniProt Q15303); settings: compound 100.0 µM; ATP 5 µM
MAP3K1 (human) = MAP3K1 (human) (UniProt Q13233); settings: compound 100.0 µM; ATP 50 µM
BTK (human) = BTK (human) (UniProt Q06187); settings: compound 100.0 µM; ATP 50 µM
EPHA4 (human) = EPHA4 (human) (UniProt P54764); settings: compound 100.0 µM; ATP 50 µM
TEK (human) = TEK (human) (UniProt Q02763); settings: compound 100.0 µM; ATP 20 µM
NEK2 (human) = NEK2 (human) (UniProt P51955); settings: compound 100.0 µM; ATP 50 µM
EPHB4 (human) = EPHB4 (human) (UniProt P54760); settings: compound 100.0 µM; ATP 5 µM
MAPKAPK5 (human) = MAPKAPK5 (human) (UniProt Q8IW41); settings: compound 100.0 µM; ATP 20 µM
DAPK1 (human) = DAPK1 (human) (UniProt P53355); settings: compound 100.0 µM; ATP 5 µM
ZAP70 (human) = ZAP70 (human) (UniProt P43403); settings: compound 100.0 µM; ATP 5 µM
STK3 (human) = STK3 (human) (UniProt Q13188); settings: compound 100.0 µM; ATP 20 µM
MAP3K5 (human) = MAP3K5 (human) (UniProt Q99683); settings: compound 100.0 µM; ATP 50 µM
MAPKAPK2 (human) = MAPKAPK2 (human) (UniProt P49137); settings: compound 100.0 µM; ATP 20 µM
MKNK1 (human) = MKNK1 (human) (UniProt Q9BUB5); settings: compound 100.0 µM; ATP 50 µM
ROCK2 (rat) = settings: compound 100.0 µM; ATP 20 µM; accession and sequence are those of the human protein
TAOK1 (human) = TAOK1 (human) (UniProt Q7L7X3); settings: compound 100.0 µM; ATP 20 µM
MAPK11 (human) = MAPK11 (human) (UniProt Q15759); settings: compound 100.0 µM; ATP 20 µM
SRC (human) = SRC (human) (UniProt P12931); settings: compound 100.0 µM; ATP 50 µM
MINK1 (human) = MINK1 (human) (UniProt Q8N4C8); settings: compound 100.0 µM; ATP 50 µM
NUAK1 (human) = NUAK1 (human) (UniProt O60285); settings: compound 100.0 µM; ATP 20 µM
MAP2K6 (human) = MAP2K6 (human) (UniProt P52564); settings: compound 100.0 µM; ATP 50 µM
DYRK3 (human) = DYRK3 (human) (UniProt O43781); settings: compound 100.0 µM; ATP 5 µM
CSK (human) = CSK (human) (UniProt P41240); settings: compound 100.0 µM; ATP 20 µM
MKNK2 (human) = MKNK2 (human) (UniProt Q9HBH9); settings: compound 100.0 µM; ATP 50 µM
PRKCG (human) = PRKCG (human) (UniProt P05129); settings: compound 100.0 µM; ATP 20 µM
EEF2K (human) = EEF2K (human) (UniProt O00418); settings: compound 100.0 µM; ATP 5 µM
[1] = test system: PAK2 (human), Q13177 [T402E]; settings: compound 100.0 µM; ATP 20 µM

Sequence of RPS6KA1 KD1 KD2 (human) (Q15418 whole entry, looked up): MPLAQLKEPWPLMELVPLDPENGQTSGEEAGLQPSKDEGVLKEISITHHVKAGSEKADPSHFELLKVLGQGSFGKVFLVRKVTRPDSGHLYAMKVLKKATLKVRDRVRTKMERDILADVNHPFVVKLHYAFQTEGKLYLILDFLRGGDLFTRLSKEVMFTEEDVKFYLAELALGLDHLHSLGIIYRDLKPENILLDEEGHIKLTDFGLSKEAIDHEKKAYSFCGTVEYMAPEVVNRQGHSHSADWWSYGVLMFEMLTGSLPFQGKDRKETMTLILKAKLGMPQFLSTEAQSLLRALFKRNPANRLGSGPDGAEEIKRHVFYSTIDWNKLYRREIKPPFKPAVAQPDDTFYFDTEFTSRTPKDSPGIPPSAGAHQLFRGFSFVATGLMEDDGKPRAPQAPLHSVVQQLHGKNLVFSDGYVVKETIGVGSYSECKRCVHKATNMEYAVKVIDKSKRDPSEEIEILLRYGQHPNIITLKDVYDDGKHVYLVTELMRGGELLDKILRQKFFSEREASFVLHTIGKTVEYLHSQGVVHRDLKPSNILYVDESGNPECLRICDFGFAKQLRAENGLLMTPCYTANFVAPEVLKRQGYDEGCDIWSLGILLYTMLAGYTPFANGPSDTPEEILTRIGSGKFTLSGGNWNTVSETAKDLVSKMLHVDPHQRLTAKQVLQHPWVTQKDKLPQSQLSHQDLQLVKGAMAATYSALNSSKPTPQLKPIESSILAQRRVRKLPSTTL
Sequence of NUAK1 (human) (O60285 whole entry, looked up): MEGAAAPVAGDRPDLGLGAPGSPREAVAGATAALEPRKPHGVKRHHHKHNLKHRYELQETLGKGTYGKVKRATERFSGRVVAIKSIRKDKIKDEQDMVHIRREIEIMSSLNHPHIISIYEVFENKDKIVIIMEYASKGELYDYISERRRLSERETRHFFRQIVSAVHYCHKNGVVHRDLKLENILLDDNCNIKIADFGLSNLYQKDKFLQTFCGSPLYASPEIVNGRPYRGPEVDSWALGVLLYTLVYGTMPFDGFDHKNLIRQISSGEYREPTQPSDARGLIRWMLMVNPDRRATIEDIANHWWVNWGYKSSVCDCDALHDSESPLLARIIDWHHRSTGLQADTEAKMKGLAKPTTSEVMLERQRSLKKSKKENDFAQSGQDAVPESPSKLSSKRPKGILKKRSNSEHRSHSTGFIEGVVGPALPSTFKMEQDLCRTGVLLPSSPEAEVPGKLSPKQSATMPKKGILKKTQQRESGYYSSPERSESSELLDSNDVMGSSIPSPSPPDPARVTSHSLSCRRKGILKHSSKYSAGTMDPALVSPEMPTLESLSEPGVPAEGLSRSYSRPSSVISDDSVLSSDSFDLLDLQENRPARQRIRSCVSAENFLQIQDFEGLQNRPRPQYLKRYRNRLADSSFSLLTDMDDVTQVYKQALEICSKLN
Sequence of MKNK1 (human) (Q9BUB5 whole entry, looked up): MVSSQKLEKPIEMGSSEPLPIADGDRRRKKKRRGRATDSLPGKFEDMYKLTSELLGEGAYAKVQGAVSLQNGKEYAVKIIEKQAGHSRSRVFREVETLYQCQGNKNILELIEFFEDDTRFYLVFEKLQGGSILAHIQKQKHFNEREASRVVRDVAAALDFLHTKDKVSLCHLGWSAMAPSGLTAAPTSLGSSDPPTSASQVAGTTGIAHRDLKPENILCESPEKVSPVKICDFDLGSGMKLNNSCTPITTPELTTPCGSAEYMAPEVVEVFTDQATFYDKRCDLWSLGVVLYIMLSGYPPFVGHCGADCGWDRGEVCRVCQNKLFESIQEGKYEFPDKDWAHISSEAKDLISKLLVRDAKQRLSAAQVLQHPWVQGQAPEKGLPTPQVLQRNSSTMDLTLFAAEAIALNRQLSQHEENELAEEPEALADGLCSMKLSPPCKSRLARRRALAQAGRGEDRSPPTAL
Sequence of BTK (human) (Q06187 whole entry, looked up): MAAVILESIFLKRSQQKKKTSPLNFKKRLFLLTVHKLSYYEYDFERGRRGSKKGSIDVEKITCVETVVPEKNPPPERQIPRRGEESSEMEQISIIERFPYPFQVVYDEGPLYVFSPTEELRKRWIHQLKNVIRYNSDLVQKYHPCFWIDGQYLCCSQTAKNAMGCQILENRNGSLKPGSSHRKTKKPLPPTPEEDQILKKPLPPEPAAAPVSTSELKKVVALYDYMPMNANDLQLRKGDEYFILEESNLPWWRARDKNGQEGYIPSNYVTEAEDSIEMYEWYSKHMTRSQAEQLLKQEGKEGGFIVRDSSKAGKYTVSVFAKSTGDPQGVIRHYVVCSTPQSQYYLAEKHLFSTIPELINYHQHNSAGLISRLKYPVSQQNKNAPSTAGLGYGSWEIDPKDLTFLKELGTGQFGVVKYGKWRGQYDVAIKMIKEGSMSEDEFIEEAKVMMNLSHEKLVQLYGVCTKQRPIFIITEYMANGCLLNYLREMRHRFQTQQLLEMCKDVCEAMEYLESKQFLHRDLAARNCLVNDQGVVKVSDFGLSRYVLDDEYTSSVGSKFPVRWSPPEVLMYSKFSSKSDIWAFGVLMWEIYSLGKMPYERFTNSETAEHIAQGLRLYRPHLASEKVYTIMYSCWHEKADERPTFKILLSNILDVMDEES
Sequence of MYLK (human) (Q15746 whole entry, looked up): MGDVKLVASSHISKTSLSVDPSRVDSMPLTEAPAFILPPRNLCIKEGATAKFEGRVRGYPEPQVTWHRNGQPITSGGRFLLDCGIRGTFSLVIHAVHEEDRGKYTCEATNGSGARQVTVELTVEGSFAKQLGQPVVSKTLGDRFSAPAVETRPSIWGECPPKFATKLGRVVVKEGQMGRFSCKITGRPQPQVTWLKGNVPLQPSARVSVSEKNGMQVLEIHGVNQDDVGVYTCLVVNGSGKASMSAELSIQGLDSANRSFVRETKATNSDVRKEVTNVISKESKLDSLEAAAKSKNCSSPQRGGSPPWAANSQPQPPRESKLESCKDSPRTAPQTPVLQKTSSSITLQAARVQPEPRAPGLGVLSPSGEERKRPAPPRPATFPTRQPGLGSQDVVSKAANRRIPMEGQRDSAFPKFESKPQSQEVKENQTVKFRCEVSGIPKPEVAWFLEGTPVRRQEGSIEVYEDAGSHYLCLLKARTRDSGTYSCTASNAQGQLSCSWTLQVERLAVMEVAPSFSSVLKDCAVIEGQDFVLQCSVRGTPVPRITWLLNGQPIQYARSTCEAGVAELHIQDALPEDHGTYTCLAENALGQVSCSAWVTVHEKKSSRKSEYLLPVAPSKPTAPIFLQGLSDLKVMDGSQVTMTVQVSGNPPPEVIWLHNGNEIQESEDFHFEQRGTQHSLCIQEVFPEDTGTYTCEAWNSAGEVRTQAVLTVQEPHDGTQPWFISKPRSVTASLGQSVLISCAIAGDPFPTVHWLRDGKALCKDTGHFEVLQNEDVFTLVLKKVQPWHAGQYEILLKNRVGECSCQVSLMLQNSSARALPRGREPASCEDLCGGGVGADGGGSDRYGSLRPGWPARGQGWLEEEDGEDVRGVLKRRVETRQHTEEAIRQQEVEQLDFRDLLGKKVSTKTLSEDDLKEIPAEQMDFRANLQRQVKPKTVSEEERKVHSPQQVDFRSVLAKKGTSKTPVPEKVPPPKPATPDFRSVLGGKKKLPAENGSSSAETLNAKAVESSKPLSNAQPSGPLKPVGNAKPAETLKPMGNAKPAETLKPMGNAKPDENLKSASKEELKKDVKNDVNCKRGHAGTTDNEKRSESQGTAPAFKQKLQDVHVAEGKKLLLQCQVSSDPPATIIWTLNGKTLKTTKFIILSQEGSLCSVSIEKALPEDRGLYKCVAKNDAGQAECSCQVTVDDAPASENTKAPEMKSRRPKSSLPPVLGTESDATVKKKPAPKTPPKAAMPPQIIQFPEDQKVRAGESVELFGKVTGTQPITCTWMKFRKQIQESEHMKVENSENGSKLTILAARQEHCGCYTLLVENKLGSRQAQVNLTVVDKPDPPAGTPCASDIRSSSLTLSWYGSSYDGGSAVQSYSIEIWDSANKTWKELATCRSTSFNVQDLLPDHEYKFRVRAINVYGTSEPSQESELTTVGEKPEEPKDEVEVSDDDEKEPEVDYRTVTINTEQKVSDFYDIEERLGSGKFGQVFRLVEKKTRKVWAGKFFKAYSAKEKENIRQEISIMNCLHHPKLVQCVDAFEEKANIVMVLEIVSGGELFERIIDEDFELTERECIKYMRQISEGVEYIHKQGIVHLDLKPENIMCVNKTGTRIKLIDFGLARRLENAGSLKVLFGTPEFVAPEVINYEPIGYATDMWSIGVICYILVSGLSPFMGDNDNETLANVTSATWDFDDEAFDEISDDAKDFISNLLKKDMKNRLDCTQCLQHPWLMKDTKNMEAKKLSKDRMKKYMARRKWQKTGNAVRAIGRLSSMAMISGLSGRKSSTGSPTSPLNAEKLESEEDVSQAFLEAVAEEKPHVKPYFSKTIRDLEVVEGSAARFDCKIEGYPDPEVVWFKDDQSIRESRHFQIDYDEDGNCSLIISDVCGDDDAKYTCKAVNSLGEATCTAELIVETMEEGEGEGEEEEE
Sequence of YES1 (human) (P07947 whole entry, looked up): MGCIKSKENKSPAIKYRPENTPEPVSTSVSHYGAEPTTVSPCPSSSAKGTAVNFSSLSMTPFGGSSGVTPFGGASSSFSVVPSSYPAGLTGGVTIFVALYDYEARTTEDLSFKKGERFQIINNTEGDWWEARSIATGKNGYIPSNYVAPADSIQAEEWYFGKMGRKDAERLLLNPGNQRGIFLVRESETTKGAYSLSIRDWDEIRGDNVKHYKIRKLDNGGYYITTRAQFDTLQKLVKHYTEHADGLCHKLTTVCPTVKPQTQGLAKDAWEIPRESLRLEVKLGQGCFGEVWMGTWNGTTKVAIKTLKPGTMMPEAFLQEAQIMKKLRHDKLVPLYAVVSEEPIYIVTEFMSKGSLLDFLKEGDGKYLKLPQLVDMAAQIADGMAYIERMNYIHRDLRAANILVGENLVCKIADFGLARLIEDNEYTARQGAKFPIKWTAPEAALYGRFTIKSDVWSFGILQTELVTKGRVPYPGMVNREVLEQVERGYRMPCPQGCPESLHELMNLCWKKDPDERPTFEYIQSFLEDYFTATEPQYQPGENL

| SMILES | inhibition (LCK (mouse)) | inhibition (MAPK8 (human)) | inhibition (RPS6KA3 KD1 KD2 (human)) | inhibition (PRKACA (human)) | inhibition (HIPK3 (human)) | inhibition (RPS6KA5 KD1 KD2 (human)) | inhibition (DYRK1A (human)) | inhibition (EPHB2 (human)) | inhibition (MARK3 (human)) | inhibition (MYLK (human)) | inhibition (YES1 (human)) | inhibition (RPS6KA1 KD1 KD2 (human)) | inhibition (ERBB4 (human)) | inhibition (MAP3K1 (human)) | inhibition (BTK (human)) | inhibition (EPHA4 (human)) | inhibition (TEK (human)) | inhibition (NEK2 (human)) | inhibition (EPHB4 (human)) | inhibition (MAPKAPK5 (human)) | further results |
| --- | --- | --- | --- | --- | --- | --- | --- | --- | --- | --- | --- | --- | --- | --- | --- | --- | --- | --- | --- | --- | --- |
| O=C(Nc1cnc2[nH]cnn2c1=O)c1ccccc1 | 18% | 0% | 11% | 0% | 0% | 52% | 0% | 6% | 5% | 0% | 0% | 15% | 21% | 6% | 17% | 11% | 0% | 0% | 6% | 0% | inhibition (DAPK1 (human)): 0%; inhibition (ZAP70 (human)): 0%; inhibition (STK3 (human)): 0%; inhibition (MAP3K5 (human)): 9%; inhibition (MAPKAPK2 (human)): 17%; inhibition (MKNK1 (human)): 0%; inhibition (ROCK2 (rat)): 0%; inhibition (TAOK1 (human)): 0%; inhibition (MAPK11 (human)): 2%; inhibition (SRC (human)): 0%; inhibition (MINK1 (human)): 0%; inhibition (NUAK1 (human)): 0%; inhibition (MAP2K6 (human)): 3%; inhibition (DYRK3 (human)): 1%; inhibition (CSK (human)): 8%; inhibition (MKNK2 (human)): 10%; inhibition (PRKCG (human)): 2%; inhibition (EEF2K (human)): 6%; inhibition [1]: 0% |
| CC1CN(c2nc3ccccn3c(=O)c2N)CC(C)O1 (configuration not stated) | 2% | 14% | 84% | 0% and 15% | 0% | 0% | 36% | 20% | 25% | 0% | 57% | 0% | 28% | 0% | 1% | 16% | 5% | 0% | 12% | 75% | inhibition (DAPK1 (human)): 0%; inhibition (ZAP70 (human)): 38%; inhibition (STK3 (human)): 0%; inhibition (MAP3K5 (human)): 4%; inhibition (MAPKAPK2 (human)): 0%; inhibition (MKNK1 (human)): 0%; inhibition (ROCK2 (rat)): 17%; inhibition (TAOK1 (human)): 0%; inhibition (MAPK11 (human)): 0%; inhibition (SRC (human)): 73%; inhibition (MINK1 (human)): 2%; inhibition (NUAK1 (human)): 3%; inhibition (MAP2K6 (human)): 1%; inhibition (DYRK3 (human)): 49%; inhibition (CSK (human)): 0%; inhibition (MKNK2 (human)): 0%; inhibition (PRKCG (human)): 0%; inhibition (EEF2K (human)): 35%; inhibition [1]: 3% |
| CC(C)(C)Nc1c(C2CC2)nc2[nH]cnn12 | 0% | 0% | 13% | 0% and 5% | 0% | 0% | 0% | 0% | 0% | 14% | 0% | 3% | 19% | 0% | 6% | 9% | 9% | 0% | 19% | 13% | inhibition (DAPK1 (human)): 0%; inhibition (ZAP70 (human)): 1%; inhibition (STK3 (human)): 0%; inhibition (MAP3K5 (human)): 4%; inhibition (MAPKAPK2 (human)): 0%; inhibition (MKNK1 (human)): 0%; inhibition (ROCK2 (rat)): 2%; inhibition (TAOK1 (human)): 0%; inhibition (MAPK11 (human)): 0%; inhibition (SRC (human)): 0%; inhibition (MINK1 (human)): 0%; inhibition (NUAK1 (human)): 24%; inhibition (MAP2K6 (human)): 3%; inhibition (DYRK3 (human)): 7%; inhibition (CSK (human)): 0%; inhibition (MKNK2 (human)): 9%; inhibition (PRKCG (human)): 9%; inhibition (EEF2K (human)): 18%; inhibition [1]: 10% |
